From patent US10942159B2, “Product sustainability scorecard” (Symrise AG, priority 2016, dated 2021) come the findings set out here.

Data set [1] is described as follows: Product Sustainability Scorecard: biodegradability score according to OECD Method 301/302. To be noted: consolidated scorecard score, scale 0 to 100; score equals % biodegradation after 28-day OECD 301 test. On the procedure: Biodegradation is one of the most important factors in assessing the environmental fate of chemicals. Biodegradation is the chemical dissolution of materials by bacteria, fungi, or other biological means. Biodegradability is evaluated according to the OECD Method 301/302 or equivalent. The tests of the OECD test series 301 (A-F) verify whether a substance is able for complete biodegradation under aerobic conditions. Different test methods are available for well or poorly soluble as well as volatile substances. The test usually takes 28 days. Test items must reach 60% biodegradation within 10 days to be classified as ‘ready biodegradable’.
Scheme 1: Scoring • STEP 1 Evaluation of the “Biodegradability Score” of the fragrance raw material based on the following scoring system
The score for biodegradability of the compound or the compounds is evaluated according to OECD Method 301/302 or equivalent.

The nature of data set [2]: Product Sustainability Scorecard: process safety with regard to ecological toxicity (Product EcoTox score from GHS H-phrases and supplier score). Particulars: consolidated scorecard score, normalized scale 0 to 100 without dimension. The text has this:
(§1) Hazard statements form part of the ‘Globally Harmonized System of Classification and Labelling of Chemicals’ (GHS). They are intended to form a set of standardized phrases about the hazards of chemical substances and mixtures.
(§2) H200: Physical Hazards (=Toxicity and Eco Toxicity)
H400: Environmental Hazards (=Eco Toxicity)
(§3) Scheme 4 and 5: Scoring • STEP 1 Evaluation of the ‘(Eco) Toxicity Material Score’ and ‘Critical By-Product Score’ of each reactant and its potential by-products based on the safety according to material properties:
(§4) • STEP 2 Evaluation of the ‘(Eco) Tox Supplier Score’ of each reactant based on process safety according to chemical handling (see appendix for further information):
(§5) • STEP 3 Calculation of the overall ‘(Eco) Tox Score’ of each reactant and the final product. […] If the supplier score is better, it outweighs the material score—following the assumption that a safe and controlled production environment is able to avert the risks of hazardous materials: MAX(‘(Eco) Tox Material Score’;‘(Eco) Tox Supplier Score’)=(Eco) Tox Score • (ii) Composed products: For composed products the (Eco) Tox Score combines the hazard and supplier information of the composed product itself (calculated as above) with the (Eco) Tox Score of its reactants. […]

The nature of data set [3]: Product Sustainability Scorecard: process safety with regard to human toxicity (Product Tox score from GHS H-phrases and supplier score). Particulars: consolidated scorecard score, normalized scale 0 to 100 without dimension.
Excerpt: as §1, §2
H300: Health Hazards (=Toxicity)
as §3, §4, §5
The score for the overall human toxicity S(HTOX) is calculated according to the following equation (4): S(HTOX)=⅔*MAX(Ma;Pa)+⅓*(Mb*Cb)+ . . . […]

Substance 44_Dihydro Myrcenol [44DHM] came in with a Biodegradability in data set [1] of 100.00. For the same substance, in data set [2], the “Product EcoTox” value is given as 87.73. The “Product Tox” value in data set [3] stood at 80.38.
